What was measured:
wheat = assay: Test A pre-/postemergence herbicide test; type: in vivo, Triticum aestivum
Method in brief: (§1)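 Visual injury ratings, 0 = no effect, 100 = complete control, taken ~10 days after treatment against untreated greenhouse controls. Preemergence: directed soil spray onto seeded loam/sand pots. Postemergence: spray onto plants at one- to two-leaf stage, 2–10 cm tall.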

barnyardgrass [1] = assay: Test A pre-/postemergence herbicide test; type: in vivo, Echinochloa crus-galli
Method in brief: as §1

barnyardgrass [2] = assay: Test B flooded paddy test; type: in vivo, Echinochloa crus-galli; settings: Flood, scale of 0 to 100 where 0 is no effect and 100 is complete control
Procedure: (§2) Plant species in the flooded paddy test selected from rice (Oryza sativa), sedge, umbrella (small-flower umbrella sedge, Cyperus difformis), ducksalad (Heteranthera limosa), and barnyardgrass (Echinochloa crus-galli) were grown to the 2-leaf stage for testing. At time of treatment, test pots were flooded to 3 cm above the soil surface, treated by application of test compounds directly to the paddy water, and then maintained at that water depth for the duration of the test. Treated plants and controls were maintained in a greenhouse for 13 to 15 days, after which time all species were compared to controls and visually evaluated. Plant response ratings, summarized in Table B, are based on a scale of 0 to 100 where 0 is no effect and 100 is complete control. A dash (-) response means no test result.

rice = assay: Test B flooded paddy test; type: in vivo, Oryza sativa; settings: Flood, scale of 0 to 100 where 0 is no effect and 100 is complete control
Procedure: as §2

morningglory = assay: Test A pre-/postemergence herbicide test; type: in vivo, Ipomoea spp.
Method in brief: as §1

crabgrass, large = assay: Test A pre-/postemergence herbicide test; type: in vivo, Digitaria sanguinalis
Method in brief: as §1

sedge, umbrella = assay: Test B flooded paddy test; type: in vivo, Cyperus difformis; settings: Flood, scale of 0 to 100 where 0 is no effect and 100 is complete control
Procedure: as §2

giant foxtail = assay: Test A pre-/postemergence herbicide test; type: in vivo, Setaria faberii
Method in brief: as §1

velvetleaf = assay: Test A pre-/postemergence herbicide test; type: in vivo, Abutilon theophrasti
Method in brief: as §1

pigweed = assay: Test A pre-/postemergence herbicide test; type: in vivo, Amaranthus retroflexus
Method in brief: as §1

ducksalad = assay: Test B flooded paddy test; type: in vivo, Heteranthera limosa; settings: Flood, scale of 0 to 100 where 0 is no effect and 100 is complete control
Procedure: as §2

corn = assay: Test A pre-/postemergence herbicide test; type: in vivo, Zea mays
Method in brief: as §1

[3] = Postemergence, 1000 g ai/ha, 0 to 100 scale (0 no effect, 100 complete control)
[4] = Preemergence, 1000 g ai/ha, visual rating on 0 to 100 scale (0 no effect, 100 complete control), approx. 10 days
[5] = Postemergence, 125 g ai/ha, 0 to 100 scale, 0 no effect, 100 complete control
[6] = Postemergence, 500 g ai/ha, 0 to 100 scale (0 no effect, 100 complete control)
[7] = Preemergence, 125 g ai/ha, visual rating on 0 to 100 scale (0 no effect, 100 complete control)
[8] = preemergence, 500 g ai/ha, 0 to 100 scale
[9] = preemergence, 500 g ai/ha, 0 to 100 scale (0 no effect, 100 complete control)
[10] = preemergence, 1000 g ai/ha, 0 to 100 scale

O=C1NCC(c2ccc(F)c(F)c2)C1C(=O)Nc1ccccc1 (racemic) [Compound 30]
90: Plant response rating, Barnyardgrass (barnyardgrass [1]; [3]) | Plant response rating, Barnyardgrass (barnyardgrass [1]; [4]) | Plant response rating, Crabgrass, Large (crabgrass, large; [4]) | Plant response rating, Foxtail, Giant (giant foxtail; [4])
80: Plant response rating, Crabgrass, Large (crabgrass, large; [3]) | Plant response rating, Foxtail, Giant (giant foxtail; [3])
0: Plant response rating, Wheat (wheat; [3]) | Plant response rating, Wheat (wheat; [4]) | Plant response rating, Barnyardgrass (barnyardgrass [2]; 250 g ai/ha) | Plant response rating, Rice (rice; 250 g ai/ha) | Plant response rating, Morningglory (morningglory; [3]) | Plant response rating, Morningglory (morningglory; [4]) | Plant response rating, Sedge, Umbrella (sedge, umbrella; 250 g ai/ha) | Plant response rating, Velvetleaf (velvetleaf; [3]) | Plant response rating, Velvetleaf (velvetleaf; [4]) | Plant response rating, Pigweed (pigweed; [3]) | Plant response rating, Pigweed (pigweed; [4]) | Plant response rating, Ducksalad (ducksalad; 250 g ai/ha) | Plant response rating, Corn (corn; [3]) | Plant response rating, Corn (corn; [4])

N#Cc1cccc(C2CNC(=O)C2C(=O)Nc2cccc(F)c2F)c1 (racemic) [Compound 73]
30: Plant response rating, Foxtail, Giant (giant foxtail; [5]) | Plant response rating, Velvetleaf (velvetleaf; [6])
70: Plant response rating, Barnyardgrass (barnyardgrass [1]; [5])
90: Plant response rating, Crabgrass, Large (crabgrass, large; [8]) | Plant response rating, Foxtail, Giant (giant foxtail; [8])
0: Plant response rating, Wheat (wheat; [5]) | Plant response rating, Wheat (wheat; [6]) | Wheat plant response rating (wheat; [7]) | Plant response rating, Wheat (wheat; [8]) | Plant response rating, Barnyardgrass (barnyardgrass [2]; 250 g ai/ha) | Plant response rating, Rice (rice; 250 g ai/ha) | Plant response rating, Morningglory (morningglory; [5]) | Morningglory plant response rating (morningglory; [7]) | Plant response rating, Morningglory (morningglory; [8]) | Plant response rating, Sedge, Umbrella (sedge, umbrella; 250 g ai/ha) | Plant response rating, Velvetleaf (velvetleaf; [5]) | Velvetleaf plant response rating (velvetleaf; [7]) | Plant response rating, Velvetleaf (velvetleaf; [8]) | Plant response rating, Pigweed (pigweed; [6]) | Pigweed plant response rating (pigweed; [7]) | Plant response rating, Pigweed (pigweed; [8]) | Plant response rating, Corn (corn; [5]) | Plant response rating, Corn (corn; [6]) | Corn plant response rating (corn; [7]) | Plant response rating, Corn (corn; [8])
80: Plant response rating, Barnyardgrass (barnyardgrass [1]; [6]) | Plant response rating, Barnyardgrass (barnyardgrass [1]; [9]) | Plant response rating, Crabgrass, Large (crabgrass, large; [6]) | Crabgrass, Large plant response rating (crabgrass, large; [7]) | Plant response rating, Foxtail, Giant (giant foxtail; [6]) | Foxtail, Giant plant response rating (giant foxtail; [7])
60: Plant response rating, Ducksalad (ducksalad; 250 g ai/ha)
50: Barnyardgrass plant response rating (barnyardgrass [1]; [7]) | Plant response rating, Crabgrass, Large (crabgrass, large; [5])
20: Plant response rating, Morningglory (morningglory; [6])

O=C1NCC(c2ccccc2)C1C(=O)Nc1ccccc1C(F)(F)F (racemic) [Compound 82]
90: Plant response rating, Crabgrass, Large (crabgrass, large; [8])
20: Foxtail, Giant plant response rating (giant foxtail; [7]) | Plant response rating, Velvetleaf (velvetleaf; [6])
80: Crabgrass, Large plant response rating (crabgrass, large; [7]) | Plant response rating, Sedge, Umbrella (sedge, umbrella; 250 g ai/ha)
10: Plant response rating, Wheat (wheat; [6]) | Plant response rating, Morningglory (morningglory; [6])
50: Plant response rating, Barnyardgrass (barnyardgrass [1]; [6]) | Plant response rating, Barnyardgrass (barnyardgrass [1]; [9]) | Plant response rating, Crabgrass, Large (crabgrass, large; [5])
70: Plant response rating, Crabgrass, Large (crabgrass, large; [6]) | Plant response rating, Foxtail, Giant (giant foxtail; [6]) | Plant response rating, Foxtail, Giant (giant foxtail; [8]) | Plant response rating, Ducksalad (ducksalad; 250 g ai/ha)
0: Plant response rating, Wheat (wheat; [5]) | Wheat plant response rating (wheat; [7]) | Plant response rating, Wheat (wheat; [8]) | Plant response rating, Barnyardgrass (barnyardgrass [1]; [5]) | Barnyardgrass plant response rating (barnyardgrass [1]; [7]) | Plant response rating, Barnyardgrass (barnyardgrass [2]; 250 g ai/ha) | Plant response rating, Morningglory (morningglory; [5]) | Plant response rating, Morningglory (morningglory; [8]) | Plant response rating, Foxtail, Giant (giant foxtail; [5]) | Plant response rating, Velvetleaf (velvetleaf; [5]) | Velvetleaf plant response rating (velvetleaf; [7]) | Plant response rating, Velvetleaf (velvetleaf; [8]) | Plant response rating, Pigweed (pigweed; [5]) | Plant response rating, Pigweed (pigweed; [6]) | Pigweed plant response rating (pigweed; [7]) | Plant response rating, Pigweed (pigweed; [8]) | Plant response rating, Corn (corn; [5]) | Plant response rating, Corn (corn; [6]) | Corn plant response rating (corn; [7]) | Plant response rating, Corn (corn; [8])

O=C1NCC(c2ccc(F)c(F)c2)C1C(=O)Nc1ccc[nH]c1=O (racemic) [Compound 97]
70: Plant response rating, Ducksalad (ducksalad; 250 g ai/ha)
50: Plant response rating, Barnyardgrass (barnyardgrass [2]; 250 g ai/ha) | Plant response rating, Rice (rice; 250 g ai/ha)
0: Plant response rating, Wheat (wheat; [5]) | Plant response rating, Wheat (wheat; [6]) | Wheat plant response rating (wheat; [7]) | Plant response rating, Wheat (wheat; [8]) | Plant response rating, Barnyardgrass (barnyardgrass [1]; [5]) | Plant response rating, Barnyardgrass (barnyardgrass [1]; [6]) | Barnyardgrass plant response rating (barnyardgrass [1]; [7]) | Plant response rating, Barnyardgrass (barnyardgrass [1]; [9]) | Plant response rating, Morningglory (morningglory; [5]) | Plant response rating, Morningglory (morningglory; [6]) | Morningglory plant response rating (morningglory; [7]) | Plant response rating, Morningglory (morningglory; [8]) | Plant response rating, Crabgrass, Large (crabgrass, large; [5]) | Plant response rating, Crabgrass, Large (crabgrass, large; [6]) | Crabgrass, Large plant response rating (crabgrass, large; [7]) | Plant response rating, Crabgrass, Large (crabgrass, large; [8]) | Plant response rating, Foxtail, Giant (giant foxtail; [5]) | Plant response rating, Foxtail, Giant (giant foxtail; [6]) | Foxtail, Giant plant response rating (giant foxtail; [7]) | Plant response rating, Foxtail, Giant (giant foxtail; [8]) | Plant response rating, Velvetleaf (velvetleaf; [5]) | Plant response rating, Velvetleaf (velvetleaf; [6]) | Velvetleaf plant response rating (velvetleaf; [7]) | Plant response rating, Velvetleaf (velvetleaf; [8]) | Plant response rating, Pigweed (pigweed; [5]) | Plant response rating, Pigweed (pigweed; [6]) | Pigweed plant response rating (pigweed; [7]) | Plant response rating, Pigweed (pigweed; [8]) | Plant response rating, Corn (corn; [5]) | Plant response rating, Corn (corn; [6]) | Corn plant response rating (corn; [7]) | Plant response rating, Corn (corn; [8])
75: Plant response rating, Sedge, Umbrella (sedge, umbrella; 250 g ai/ha)

O=C1NCC(c2ccc(F)c(F)c2)C1C(=O)Nc1cccc(Cl)c1F (racemic) [Compound 104]
0: Plant response rating, Wheat (wheat; [3]) | Plant response rating, Rice (rice; 1000 g ai/ha) | Plant response rating, Morningglory (morningglory; [3]) | Plant response rating, Morningglory (morningglory; [4]) | Plant response rating, Sedge, Umbrella (sedge, umbrella; 1000 g ai/ha) | Plant response rating, Velvetleaf (velvetleaf; [4]) | Plant response rating, Pigweed (pigweed; [3]) | Plant response rating, Pigweed (pigweed; [4]) | Plant response rating, Corn (corn; [3])
95: Plant response rating, Ducksalad (ducksalad; 1000 g ai/ha)
70: Plant response rating, Barnyardgrass (barnyardgrass [2]; 1000 g ai/ha) | Plant response rating, Foxtail, Giant (giant foxtail; [3])
20: Plant response rating, Wheat (wheat; [4]) | Plant response rating, Corn (corn; [4])
10: Plant response rating, Velvetleaf (velvetleaf; [3])
80: Plant response rating, Barnyardgrass (barnyardgrass [1]; [3]) | Plant response rating, Barnyardgrass (barnyardgrass [1]; [4]) | Plant response rating, Crabgrass, Large (crabgrass, large; [3])
90: Plant response rating, Crabgrass, Large (crabgrass, large; [4]) | Plant response rating, Foxtail, Giant (giant foxtail; [4])

O=C1NCC(c2ccc(F)c(F)c2)C1C(=O)Nc1cccnc1F (racemic) [Compound 105]
25: Plant response rating, Barnyardgrass (barnyardgrass [2]; 1000 g ai/ha)
0: Plant response rating, Wheat (wheat; [3]) | Plant response rating, Wheat (wheat; [10]) | Plant response rating, Morningglory (morningglory; [10]) | Plant response rating, Sedge, Umbrella (sedge, umbrella; 1000 g ai/ha) | Plant response rating, Velvetleaf (velvetleaf; [10]) | Plant response rating, Pigweed (pigweed; [3]) | Plant response rating, Pigweed (pigweed; [10]) | Plant response rating, Corn (corn; [3]) | Plant response rating, Corn (corn; [10])
80: Plant response rating, Foxtail, Giant (giant foxtail; [3])
10: Plant response rating, Rice (rice; 1000 g ai/ha) | Plant response rating, Morningglory (morningglory; [3]) | Plant response rating, Velvetleaf (velvetleaf; [3])
90: Plant response rating, Barnyardgrass (barnyardgrass [1]; [3]) | Plant response rating, Barnyardgrass (barnyardgrass [1]; preemergence, 1000 g ai/ha, 0 to 100 scale (0 no effect, 100 complete control)) | Plant response rating, Crabgrass, Large (crabgrass, large; [3]) | Plant response rating, Crabgrass, Large (crabgrass, large; [10]) | Plant response rating, Foxtail, Giant (giant foxtail; [10]) | Plant response rating, Ducksalad (ducksalad; 1000 g ai/ha)

— patent US10294202B2, “Pyrrolidinones as herbicides” (FMC Corporation, priority 2013, dated 2019)
